{
  "source": "patent US7932287B2",
  "about": "“Therapeutic compositions and uses” (ChemGenes Corporation, priority 2004, dated 2011)",
  "key": {"[1]": {"system": "child diagnosed with Late Infantile Neuronal Ceroid Lipofuscinosis (LINCL)", "assay": "Blood work (standard clinical blood tests) before and after TML therapy", "type": "in vivo, human", "design": "Glutamine / Taurine / Carnitine, Total / Carnitine, Esthers / Alanine / Carbon Dioxide / BUN / Hgb / HCT / RDW / ABS Lymphocytes / Glycine: unit not given here", "experimental": "(§1) Child had been taking the supplements/vitamins listed in Appendix B for about three years before the start of TML therapy. In addition, they had been taking clonazepam (5-(2-chlorophenyl)-1,3-dihydro7-nitro-2H-1,4-benzodiazepin-2-one) which is sold under the trade name Klonopin by F. Hoffmann-La Roche Ltd. (Basel, Switzerland) for control of constant Myoclonic seizures for about the same time according to the following daily dosage: (a) at waking: ½ of one 0.5 mg tablet, (b) Every four hours after waking, ¼ of one 0.5 mg tablet, (c) At bedtime: ½ of one 0.5 mg tablet. They also took one (1) 25 mg capsule of nitrofurantoin macrocrystals (sold under the name Macrodantin by Procter & Gamble Pharmaceuticals, Cincinnati Ohio) once per day.\n(§2) “Baseline” blood work was done after an overnight fast on the morning of Nov. 19, 2003. Child received their usual supplements/vitamins, clonazepam, and macrodantin. TML, as synthesized in Example 1 was given to the patient (5 mg of TML per day for a […], ending Dec. 28, 2003). Between Dec. 28, 2003 and Jan. 24, 2004 we gave an alternating daily dose of 5 mg/day and 10 mg/day. On Jan. 24, 2004 and till the “new” blood work was done on Jan. 29, 2004, the patient received 10 mg/day by usually taking 5 mg of TML with breakfast and 5 mg of TML with dinner. They received 5 mg per dose during the duration of the experiment. In other words, they received TML once per day on days that they received 5 mg, and TML twice per day on days that they received 10 mg of TML. The TML was administered in powder form intermixed with their food.\nThe child's bloodwork results are in table 1, below and the empirical nature of the child's improvement is evidenced by the follow up blood results. These blood tests were standard clinical tests carried out at Children's Hospital of Pittsburgh."}, "[2]": {"system": "child diagnosed with Late Infantile Neuronal Ceroid Lipofuscinosis (LINCL)", "assay": "Physical condition of the patient after 9 weeks of TML therapy (parents' and physicians' observations)", "type": "in vivo, human", "experimental": "as §1, §2\nChild's General Physical Condition Before the Start of TML Therapy (Based on Parents' Observations):\n(The Physical Appearance of the Patient After the Stated 9 Weeks of TML Therapy.)"}, "[3]": {"system": "child diagnosed with Late Infantile Neuronal Ceroid Lipofuscinosis (LINCL)", "assay": "Physical condition of the patient after 9 weeks of TML therapy (parents' and physicians' observations)", "type": "in vivo, human", "settings": "TML 5 mg-30 mg per day after Jan. 29, 2004, through January 2005"}, "[4]": {"system": "L-carnitine biosynthesis", "settings": "rats; increased amount of the intermediate in the bloodstream; cited from earlier work"}, "[5]": {"system": "L-carnitine biosynthesis", "settings": "human infants & adults; increased amount of the intermediate in the bloodstream; cited from earlier work"}, "[6]": {"system": "child who was afflicted with LINCL", "assay": "Exogenous L-carnitine given to the LINCL child for over three years", "type": "in vivo, human", "experimental": "as §1\nIn summary, L-carnitine plays a key and critical role in enhancing fat metabolism. Reports attest to the fact that L-carnitine works by transporting fatty acids to be burned for fuel, increasing both energy supply and lean muscle mass. […] This contrasts with the apparent need in Late Infantile Neuronal Ceroid Lipofuscinosis (LINCL-one form of Batten Disease) of the correct operation of the endogenous production of L-carnitine. […] This also was not observed by the parents of the child who was afflicted with LINCL (discussed later)."}, "[7]": {"system": "dogs with Batten Disease (Juvenile Neuronal Ceroid Lipofuscinosis)", "settings": "cited from earlier work"}, "[8]": {"settings": "Jan. 29, 2004, after TML, baseline high"}, "[9]": {"settings": "Jan. 29, 2004, after TML, baseline normal"}, "[10]": {"settings": "exogenous carnitine, dogs with Juvenile Neuronal Ceroid Lipofuscinosis"}},
  "note": "Like-named read-outs stand apart in the source and are kept apart here.",
  "data": [
    {"compound": "C[N+](C)(C)CCCCC(N)C(=O)[O-]", "note": "[TML, N-6-trimethyl-L-lysine]", "values": [
      {"measurement": "Hgb", "setting": "[1]; Jan. 29, 2004, after 9 weeks of TML 5-10 mg/day in food, overnight fast, baseline Nov. 19, 2003: 14.4 (high)", "value": 14},
      {"measurement": "BUN", "setting": "[1]; Jan. 29, 2004, after 9 weeks of TML 5-10 mg/day, baseline 2 (low), 6 is norm", "value": 5},
      {"measurement": "ABS Lymphocytes", "setting": "[1]; Jan. 29, 2004, after 9 weeks of TML 5-10 mg/day, baseline 2.2 (low)", "value": 2.5},
      {"measurement": "Carnitine, Esthers", "setting": "[1]; Jan. 29, 2004, after 9 weeks of TML 5-10 mg/day, baseline 7 (normal)", "value": 10},
      {"measurement": "RDW", "setting": "[1]; Jan. 29, 2004, after 9 weeks of TML 5-10 mg/day, baseline 11.5", "value": 12.3},
      {"measurement": "Taurine", "setting": "[1]; Jan. 29, 2004, after 9 weeks of TML 5-10 mg/day, baseline 24 (high)", "value": 19},
      {"measurement": "Carbon Dioxide", "setting": "[1]; Jan. 29, 2004, after 9 weeks of TML 5-10 mg/day, baseline 32 (high)", "value": 22},
      {"measurement": "Carnitine, Total", "setting": "[1]; Jan. 29, 2004, after 9 weeks of TML 5-10 mg/day, baseline 40 (normal)", "value": 43},
      {"measurement": "HCT", "setting": "[1]; Jan. 29, 2004, after 9 weeks of TML 5-10 mg/day, baseline 42 (high)", "value": 40.3},
      {"measurement": "Glycine", "setting": "[1]; Jan. 29, 2004, after 9 weeks of TML 5-10 mg/day, baseline 50 (high)", "value": 25},
      {"measurement": "AST", "setting": "[1]; Jan. 29, 2004, after 9 weeks of TML 5-10 mg/day, baseline 60 (high), 40 is norm", "value": 50},
      {"measurement": "Alanine", "setting": "[1]; Jan. 29, 2004, after 9 weeks of TML 5-10 mg/day, baseline 87 (high)", "value": 47},
      {"measurement": "Glutamine", "setting": "[1]; Jan. 29, 2004, after 9 weeks of TML 5-10 mg/day, baseline 99 (high)", "value": 70},
      {"measurement": "Platelets", "setting": "[1]; Jan. 29, 2004, after 9 weeks of TML 5-10 mg/day, baseline 586 (high), 369 norm", "value": 461},
      {"measurement": "Alanine, Clinical Range", "setting": "[1]; [8]", "value": "normal"},
      {"measurement": "Carbon Dioxide, Clinical Range", "setting": "[1]; [8]", "value": "normal"},
      {"measurement": "Glutamine, Clinical Range", "setting": "[1]; [8]", "value": "normal"},
      {"measurement": "Glycine, Clinical Range", "setting": "[1]; [8]", "value": "normal"},
      {"measurement": "HCT, Clinical Range", "setting": "[1]; [8]", "value": "normal"},
      {"measurement": "Hgb, Clinical Range", "setting": "[1]; [8]", "value": "normal"},
      {"measurement": "RDW, Clinical Range", "setting": "[1]; [8]", "value": "normal"},
      {"measurement": "Taurine, Clinical Range", "setting": "[1]; [8]", "value": "normal"},
      {"measurement": "AST, Clinical Range", "setting": "[1]; Jan. 29, 2004, after TML, baseline high, 40 is norm", "value": "high"},
      {"measurement": "Platelets, Clinical Range", "setting": "[1]; Jan. 29, 2004, after TML, baseline high, 369 norm", "value": "high"},
      {"measurement": "ABS Lymphocytes, Clinical Range", "setting": "[1]; Jan. 29, 2004, after TML, baseline low", "value": "normal"},
      {"measurement": "BUN, Clinical Range", "setting": "[1]; Jan. 29, 2004, after TML, baseline low, 6 is norm", "value": "(low)"},
      {"measurement": "Carnitine, Esthers, Clinical Range", "setting": "[1]; [9]", "value": "normal"},
      {"measurement": "Carnitine, Total, Clinical Range", "setting": "[1]; [9]", "value": "normal"},
      {"measurement": "Elevation of serum amino acids (examining physician's comment)", "setting": "[1]; Jan. 29, 2004, after TML, baseline: alanine elevated, glutamine increased", "value": "No significant elevation of serum Amino Acids"},
      {"measurement": "Eye movement and pupillary response", "setting": "[2]; after 9 weeks of TML therapy", "value": "more eye movement and even the emergence of “purposeful” eye movement and a faster pupillary response"},
      {"measurement": "Hypertonicity of legs", "setting": "[2]; after 9 weeks of TML therapy", "value": "still “hypertonic”"},
      {"measurement": "Swallowing", "setting": "[2]; after 9 weeks of TML therapy", "value": "very much improved, almost normal"},
      {"measurement": "Hypertonicity of arms, hands and fingers", "setting": "[2]; after 9 weeks of TML therapy, also observed by a physiatrist and neurologist", "value": "notable reduction"},
      {"measurement": "Cyanosis symptoms in the hands and feet", "setting": "[2]; after 9 weeks of TML therapy, before: chronically cyanotic", "value": "virtually no cyanosis"},
      {"measurement": "Bowel movements", "setting": "[2]; after 9 weeks of TML therapy, before: two or three days without bowel movement, enema needed", "value": "moving their bowels on their own one to three times a day"},
      {"measurement": "Insomnia / sleeping through the night", "setting": "[2]; after approximately the first two weeks of TML, before: sleep interrupted 1 to 3 times per night", "value": "The insomnia was gone"},
      {"measurement": "Hyperammonemic condition (blue hands and feet)", "setting": "[2]; after the administration of TML", "value": "amelioration of the hyperammonemic condition"},
      {"measurement": "Metabolic and outward, observable changes to their condition", "setting": "[2]; exogenous TML to the LINCL child", "value": "yielded significant metabolic and outward, observable changes to their condition"},
      {"measurement": "Full body jerk (Myoclonus) elicited by touch", "setting": "[2]; neurologist's office visit Jan. 30, 2004", "value": "no longer elicited a full body jerk"},
      {"measurement": "Myoclonic seizures", "setting": "[2]; neurologist's office visit Jan. 30, 2004, clonazepam continued", "value": "markedly reduced in severity and in number"},
      {"measurement": "Condition on continued TML", "setting": "[3]", "value": "remained stable"},
      {"measurement": "Increase of the production of L-carnitine", "setting": "[4]", "value": 100, "unit": "fold"},
      {"measurement": "Increase of the production of L-carnitine", "setting": "[5]", "value": 3, "unit": "fold"}
    ]},
    {"compound": "C[N+](C)(C)C[C@H](O)CC(=O)[O-]", "note": "[L-carnitine, L-b-hydroxy-g-n-trimethylaminobutyric acid]", "values": [
      {"measurement": "Metabolic changes or marked outward observations of their condition", "setting": "[6]", "value": "without significant metabolic changes or marked outward observations of their condition"},
      {"measurement": "Need for endogenous production of L-carnitine", "setting": "[7]; exogenous L-Carnitine to dogs with Batten Disease", "value": "not ameliorated"},
      {"measurement": "Function of the dogs", "setting": "[7]; [10]", "value": "more functional"},
      {"measurement": "Life span versus untreated dogs (lived longer)", "setting": "[7]; [10]", "value": 10, "unit": "%"}
    ]},
    {"compound": "C[N+](C)(C)CCCC(=O)[O-]", "note": "[g-butyrobetaine, 4-N-trimethylaminobutyrate, reference compound]", "values": [
      {"measurement": "Increase of the production of L-carnitine", "setting": "[4]", "value": 100, "unit": "fold"},
      {"measurement": "Increase of the production of L-carnitine", "setting": "[5]", "value": 3, "unit": "fold"}
    ]}
  ]
}
